Experimental data reported in US7745636B2, “Hepatitis C virus inhibitors” (Bristol-Myers Squibb Company, priority 2006, dated 2010).

System: HCV 1b-377-neo replicon cells
Test: HCV Replicon assay, HCV 1b-377-neo replicon cells
Type: cell-based, HCV 1b genotype
Settings: Hepatitis C virus, Table 2, read-out: Range (EC50 against HCV 1b)

| Structure (SMILES) | EC50 [nM] |
| --- | --- |
| COC(=O)N[C@H](C(=O)Nc1ncc(-c2ccc(-c3ccc(-c4cnc([C@@H]5CCCN5C(=O)[C@@H](NC(=O)OC)C(C)C)[nH]4)cc3)cc2)[nH]1)C(C)C [Example R33, (S)-2-methoxycarbonylamino-N-(5-(4′-(2-((S)-1-((S)-2-methoxycarbonylamino-3-methylbutanoyl)pyrrolidin-2-yl)-1H-imidazol-5-yl)biphenyl-4-yl)-1H-imidazol-2-yl)-3-methylbutanamide] | 1 to 99 |
| COC(=O)N[C@@H](C(=O)N1CCC[C@H]1c1ncc(-c2ccc(-c3ccc(-c4cnc([C@@H]5CCCN5C(=O)[C@@H](c5ccccc5)N(C)C)[nH]4)cn3)cc2)[nH]1)c1ccccc1 [Example 140, methyl((1R)-2-((2S)-2-(5-(4-(5-(2-((2S)-1-((2R)-2-(dimethylamino)-2-phenylacetyl)-2-pyrrolidinyl)-1H-imidazol-5-yl)-2-pyridinyl)phenyl)-1H-imidazol-2-yl)-1-pyrrolidinyl)-2-oxo-1-phenylethyl)carbamate] | 0.001 to 0.999 |
| COC(=O)N[C@@H](C(=O)N[C@@H](C)c1ncc(-c2ccc(-c3ncc(-c4cnc([C@@H]5CCCN5C(=O)[C@H](NC(=O)OC)c5ccccc5)[nH]4)cn3)cc2)[nH]1)c1ccccc1 [Example 152j-15, methyl ((1R)-2-((2S)-2-(5-(2-(4-(2-((1S)-1-(((2R)-2-((methoxycarbonyl)amino)-2-phenylace-tyl)amino)eth-yl)-1H-imidazol-5-yl)phenyl)-5-pyrimidinyl)-1H-imidazol-2-yl)-1-pyrrolidinyl)-2-oxo-1-phenylethyl)carbamate] | 0.001 to 0.999 |
| COC(=O)N[C@@H](C(=O)N(C)[C@@H](C)c1ncc(-c2ccc(-c3ccc(-c4cnc([C@@H]5CCCN5C(=O)[C@H](NC(=O)OC)c5ccccc5)[nH]4)cc3)cc2)[nH]1)c1ccccc1 [Example 24-18-4, methyl ((1R)-2-((2S)-2-(5-(4′-(2-((1S)-1-(((2R)-2-((methoxycarbonyl)amino)-2-phenylacetyl) (methyl)amino)ethyl)-1H-imidazol-5-yl)-4-biphenylyl)-1H-imidazol-2-yl)-1-pyrrolidinyl)-2-oxo-1-phenylethyl) carbamate] | 0.001 to 0.999 |
| CN(C)[C@@H](C(=O)N1CCC[C@H]1c1ncc(-c2ccc(-c3ccc(-c4cnc([C@@H]5CCCN5C(=O)[C@@H](c5ccccc5)N(C)C)[nH]4)nc3)cc2)[nH]1)c1ccccc1 [Example 146, (1R)-2-((2S)-2-(5-(5-(4-(2-((2S)-1-((2R)-2-(dimethylamino)-2-phenylacetyl)-2-pyrrolidinyl)-1H-imidazol-5-yl)phenyl)-2-pyridinyl)-1H-imidazol-2-yl)-1-pyrrolidinyl)-N,N-dimethyl-2-oxo-1-phenylethanamine] | 0.001 to 0.999 |
| COC(=O)N[C@@H](C(=O)N[C@@H](C)c1ncc(-c2ccc(-c3ccc(-c4cnc([C@H](C)NC(=O)[C@H](NC(=O)OC)c5ccccc5)[nH]4)cn3)nc2)[nH]1)c1ccccc1 [Example 153c-7, dimethyl (2,2′-bipyridine-5,5′-diylbis(1H-imidazole-5,2-diyl(1S)-1,1-ethanediylimino((1R)-2-oxo-1-phenyl-2,1-ethanediyl))) biscarbamate] | 1 to 99 |
| CN(C)[C@@H](C(=O)N1CCC[C@H]1c1ncc(-c2ccc(-c3ccc(-c4cnc([C@@H]5CCCN5C(=O)[C@@H](c5ccccc5)N(C)C)[nH]4)nn3)nn2)[nH]1)c1ccccc1 [Example 153c-1, (1R,1′R)-2,2′-(3,3′-bipyridazine-6,6′-diylbis(1H-imidazole-5,2-diyl(2S)-2,1-pyrrolidinediyl))bis(N, N-dimethyl-2-oxo-1-phenylethanamine)] | 1 to 99 |
| COC(=O)N[C@H](C(=O)N[C@H](c1ncc(-c2ccc(-c3ccc(-c4cnc([C@@H]5CCCN5C(=O)[C@@H](NC(=O)OC)C(C)C)[nH]4)cc3)cc2)[nH]1)[C@@H](C)O)C(C)C [Example R29] | 0.001 to 0.999 |
| COC(=O)N[C@H](C(=O)N1CCC[C@H]1c1ncc(-c2ccc(-c3ccc(-c4cnc([C@@H]5CCCN5C(=O)[C@@H](NC(=NC#N)N(C)C)C(C)C)[nH]4)cc3)cc2)[nH]1)C(C)C [cj-17, methyl ((1S)-1-(((2S)-2-(5-(4′-(2-((2S)-1-(N-(cyano(dimethyl)carbamimidoyl)-L-valyl)-2-pyrrolidinyl)-1H-imidazol-5-yl)-4-biphenylyl)-1H-imidazol-2-yl)-1-pyrrolidinyl)carbonyl)-2-methylpropyl)carbamate] | 0.001 to 0.999 |
| COC(=O)N[C@H](C(=O)N1CCC[C@H]1c1ncc(-c2cnc(-c3ccc(-c4[nH]c([C@@H]5CCCN5C(=O)[C@@H](NC(=O)OC)C(C)C)nc4C(F)(F)F)cc3)nc2)[nH]1)C(C)C [Example J48, methyl ((1S)-1-(((2S)-2-(5-(2-(4-(2-((2S)-1-((2S)-2-((methoxycarbonyl)amino)-3-methylbutanoyl)-2-pyrrolidinyl)-4-(trifluoromethyl)-1H-imidazol-5-yl)phenyl)-5-pyrimidinyl)-1H-imidazol-2-yl)-1-pyrrolidinyl)carbonyl)-2-methylpropyl) carbamate] | 0.001 to 0.999 |
| C[C@H](NC(=O)[C@@H](c1ccccc1)N(C)C)c1ncc(-c2ccc(-c3ccc(-c4cnc([C@H](C)NC(=O)[C@@H](c5ccccc5)N(C)C)[nH]4)cn3)cc2)[nH]1 [Example 152j-24, (2R)-2-(dimethylamino)-N-((1S)-1-(5-(6-(4-(2-((1S)-1-(((2R)-2-(dimethylamino)-2-phenylace-tyl)amino)eth-yl)-1H-imidazol-5-yl)phenyl)-3-pyridinyl)-1H-imidazol-2-yl)ethyl)-2-phenylacetamide] | 0.001 to 0.999 |
| COC(=O)N[C@H](C(=O)N1CCC[C@H]1c1nc(-c2cnc(-c3ccc(-c4cnc([C@@H]5CCCN5C(=O)[C@@H](NC(=O)OC)C5CC5)[nH]4)cc3)nc2)c[nH]1)C1CC1 [Example D75, methyl ((1S)-1-cyclopropyl-2-((2S)-2-(5-(2-(4-(2-((2S)-1-((2S)-2-cyclopropyl-2-((methoxycarbonyl)amino)acetyl)-2-pyrrolidinyl)-1H-imidazol-5-yl)phenyl)-5-pyrimidinyl)-1H-imidazol-2-yl)-1-pyrrolidinyl)-2-oxoethyl)carbamate] | 0.001 to 0.999 |
| O=C([C@@H](c1ccccc1)N1CCCCC1)N1CCC[C@H]1c1ncc(-c2ccc(-c3ncc(-c4cnc([C@@H]5CCCN5C(=O)[C@@H](c5ccccc5)N5CCCCC5)[nH]4)cn3)cc2)[nH]1 [Example 152j-5, 5-(2-((2S)-1-((2R)-2-phenyl-2-(1-piperidinyl)acetyl)-2-pyrrolidinyl)-1H-imidazol-5-yl)-2-(4-(2-((2S)-1-((2R)-2-phenyl-2-(1-piperidinyl)acetyl)-2-pyrrolidinyl)-1H-imidazol-4-yl)phenyl)pyrimidine] | 0.001 to 0.999 |
| CCN(CC)[C@@H](C(=O)N1CCC[C@H]1c1ncc(-c2ccc(-c3ncc(-c4c[nH]c([C@@H]5CCCN5C(=O)[C@H](C)NC(=O)OC)n4)cn3)cc2)[nH]1)c1ccccc1 [Example D77, methyl ((1S)-2-((2S)-2-(5-(2-(4-(2-((2S)-1-((2R)-2-(diethylamino)-2-phenylacetyl)-2-pyrrolidinyl)-1H-imidazol-5-yl)phenyl)-5-pyrimidinyl)-1H-imidazol-2-yl)-1-pyrrolidinyl)-1-methyl-2-oxoethyl)carbamate] | 0.001 to 0.999 |
| COC(=O)N[C@H](C(=O)N1[C@H](c2ncc(-c3ccc(-c4ccc(-c5cnc([C@@H]6C[C@@H]7C[C@@H]7N6C(=O)[C@@H](NC(=O)OC)C(C)C)[nH]5)cc4)cc3)[nH]2)C[C@@H]2C[C@@H]21)C(C)C [Example M122, methyl((1S)-1-(((1S,3S,5S)-3-(5-(4′-(2-((1S,3S,5S)-2-((2S)-2-((methoxycarbonyl)amino)-3-methylbutanoyl)-2-azabicyclo[3.1.0]hex-3-yl)-1H-imidazol-5-yl)-4-biphenylyl)-1H-imidazol-2-yl)-2-azabicyclo[3.1.0]hex-2-yl)carbonyl)-2-methylpropyl)carbamate] | 1 to 99 |
| CN(C)[C@@H](C(=O)N1CCC[C@H]1c1ncc(-c2ccc(-c3ncc(-c4cnc([C@@H]5CCCN5C(=O)[C@@H](c5ccccc5)N(C)C)[nH]4)cn3)cc2)[nH]1)c1ccccc1 [Example 152j-1, (1R)-2-((2S)-2-(5-(2-(4-(2-((2S)-1-((2R)-2-(dimethylamino)-2-phenylacetyl)-2-pyrrolidinyl)-1H-imidazol-5-yl)phenyl)-5-pyrimidinyl)-1H-imidazol-2-yl)-1-pyrrolidinyl)-N,N-dimethyl-2-oxo-1-phenylethanamine] | 1 to 99 |
| COC(=O)N[C@@H](C(=O)N(C)[C@@H](C)c1ncc(-c2ccc(-c3ncc(-c4cnc([C@@H]5CCCN5C(=O)[C@H](NC(=O)OC)c5ccccc5)[nH]4)cn3)cc2)[nH]1)c1ccccc1 [Example 152j-21, methyl ((1R)-2-((2S)-2-(5-(2-(4-(2-((1S)-1-(((2R)-2-((methoxycarbonyl)amino)-2-phenylacetyl)(methyl)amino)ethyl)-1H-imidazol-5-yl)phenyl)-5-pyrimidinyl)-1H-imidazol-2-yl)-1-pyrrolidinyl)-2-oxo-1-phenylethyl)carbamate] | 0.001 to 0.999 |
| COC(=O)N[C@@H](C(=O)N1CCC[C@H]1c1ncc(-c2ccc(-c3ccc(-c4cnc([C@@H]5CCCN5C(=O)[C@H](NC(=O)OC)c5ccccc5)[nH]4)cn3)cc2)[nH]1)c1ccccc1 [Example 134, methyl ((1R)-2-((2S)-2-(5-(6-(4-(2-((2S)-1-((2R)-2-((methoxycarbonyl)amino)-2-phenylacetyl)-2-pyrrolidinyl)-1H-imidazol-5-yl)phenyl)-3-pyridinyl)-1H-imidazol-2-yl)-1-pyrrolidinyl)-2-oxo-1-phenylethyl)carbamate] | 0.001 to 0.999 |
| COC(=O)N[C@H](C(=O)N1CCC[C@H]1c1nc(-c2cnc(-c3ccc(-c4cnc([C@@H]5CCCN5C(=O)[C@@H](NC(=O)OC)C(C)C)[nH]4)cc3)nc2)c[nH]1)C(C)C [Example D74, methyl ((1S)-1-(((2S)-2-(5-(2-(4-(2-((2S)-1-((2S)-2-((methoxycarbonyl)amino)-3-methylbutanoyl)-2-pyrrolidinyl)-1H-imidazol-5-yl)phenyl)-5-pyrimidinyl)-1H-imidazol-2-yl)-1-pyrrolidinyl)carbonyl)-2-methylpropyl) carbamate] | 0.001 to 0.999 |

Same assay, conditions: Table 2, read-out: Range (EC50 against HCV 1b)

| Structure (SMILES) | EC50 [nM] |
| --- | --- |
| C=CCCOC(=O)N[C@H](C(=O)N1CCC[C@H]1c1ncc(-c2ccc(-c3ccc(-c4cnc([C@@H]5CCCN5C(=O)[C@@H](NC(=O)OCCC=C)C(C)C)[nH]4)cc3)cc2)[nH]1)C(C)C [LS16] | 1 to 99 |
